US20220235064A1 (WELLMARKER BIO CO., LTD., priority 2019, published 2022)
Structures can show the parent of a compound that is named as a salt.

Assays:
[1] = test system: cancer cell line KM12C, in which RON is activated; test: Cell growth inhibitory ability in RON-activated cancer cell line (MTS); type: cell-based; conditions: Homo sapiens, 48 hours, absorbance 490 nm
In short: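 KM12C cells (RON-activated, MEM with FBS) exposed to compound […] for 48 h. MTS added 24 h after treatment ended, incubated 4 h at 37° C, absorbance read at 490 nm. IC50 derived from absorbance.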

[2] = test system: cancer cell line HT29, in which mutated RON (Δ160) is expressed; test: Cell-killing efficacy in RON-mutated cancer cell line HT29 (trypan blue); type: cell-based; conditions: Homo sapiens, HT-29, 48 hours, trypan blue, n=2, read-out: Cell death (%) Cancer cell line HT29
Method: (§1) Experimental Example 4: Measurement of Cell-Killing Efficacy of Example Compounds in RON-Mutated Cancer Cell Lines
(§2) Each of two colorectal cancer cell lines, that is, the cancer cell line HT29 (30038, KCLB, RPMI+10% FBS), in which mutated RON (Δ160) is expressed, and the cancer cell line SW620 (CCL-227, ATCC, RPMI+10% FBS), in which mutated RON (Δ155) is expressed, was dispensed into each 60 mm^2 dish at 1×10^5 cells. After 24 hours, the dish was treated with each of the example compounds at a concentration of 1 μM or 5 μM while performing medium exchange, and then reaction was allowed to proceed for 48 hours. After 48 hours, centrifugation was performed for 4 minutes at 1,500 rpm to collect cells and cell fluid. Thereafter, living cells and dead cells were quantified (n=2) using a trypan blue solution (15250-061, Gibco), and statistical analysis was performed using Excel-T-test. Here, as a negative control, only a solvent (0.10% DMSO) was used; and as a positive control, N-(4-(2-amino-3-chloropyridin-4-yloxy)-3-fluorophenyl)-4-ethoxy-1-(4-fluorophenyl)-2-oxo-1,2-dihydropyridine-3-carboxamide, which is the compound of Example 1 in WO 2008/058229 A1, was used.

[3] = test system: cancer cell line KM12C, in which RON is activated; test: Cell-killing efficacy in RON-activated cancer cell line (trypan blue); type: cell-based; conditions: Homo sapiens, 48 hours, trypan blue, n=2, read-out: Cell death (%) Cancer cell line KM12C
In short: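 KM12C cells seeded 1×10^5 per 60 mm^2 dish in MEM + 10% FBS, then exposed 24 h later to compound at 1 μM or 5 μM for 48 h.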

RON tyrosine kinase = target: T1, RON tyrosine kinase (Homo sapiens, UniProt Q04912); test: Enzyme inhibitory activity against RON tyrosine kinase (TR-FRET); type: biochemical; conditions: RON (Carna Bioscience)
T1 construct: purchased Carna Bioscience
T1 sequence (Q04912 25-1400): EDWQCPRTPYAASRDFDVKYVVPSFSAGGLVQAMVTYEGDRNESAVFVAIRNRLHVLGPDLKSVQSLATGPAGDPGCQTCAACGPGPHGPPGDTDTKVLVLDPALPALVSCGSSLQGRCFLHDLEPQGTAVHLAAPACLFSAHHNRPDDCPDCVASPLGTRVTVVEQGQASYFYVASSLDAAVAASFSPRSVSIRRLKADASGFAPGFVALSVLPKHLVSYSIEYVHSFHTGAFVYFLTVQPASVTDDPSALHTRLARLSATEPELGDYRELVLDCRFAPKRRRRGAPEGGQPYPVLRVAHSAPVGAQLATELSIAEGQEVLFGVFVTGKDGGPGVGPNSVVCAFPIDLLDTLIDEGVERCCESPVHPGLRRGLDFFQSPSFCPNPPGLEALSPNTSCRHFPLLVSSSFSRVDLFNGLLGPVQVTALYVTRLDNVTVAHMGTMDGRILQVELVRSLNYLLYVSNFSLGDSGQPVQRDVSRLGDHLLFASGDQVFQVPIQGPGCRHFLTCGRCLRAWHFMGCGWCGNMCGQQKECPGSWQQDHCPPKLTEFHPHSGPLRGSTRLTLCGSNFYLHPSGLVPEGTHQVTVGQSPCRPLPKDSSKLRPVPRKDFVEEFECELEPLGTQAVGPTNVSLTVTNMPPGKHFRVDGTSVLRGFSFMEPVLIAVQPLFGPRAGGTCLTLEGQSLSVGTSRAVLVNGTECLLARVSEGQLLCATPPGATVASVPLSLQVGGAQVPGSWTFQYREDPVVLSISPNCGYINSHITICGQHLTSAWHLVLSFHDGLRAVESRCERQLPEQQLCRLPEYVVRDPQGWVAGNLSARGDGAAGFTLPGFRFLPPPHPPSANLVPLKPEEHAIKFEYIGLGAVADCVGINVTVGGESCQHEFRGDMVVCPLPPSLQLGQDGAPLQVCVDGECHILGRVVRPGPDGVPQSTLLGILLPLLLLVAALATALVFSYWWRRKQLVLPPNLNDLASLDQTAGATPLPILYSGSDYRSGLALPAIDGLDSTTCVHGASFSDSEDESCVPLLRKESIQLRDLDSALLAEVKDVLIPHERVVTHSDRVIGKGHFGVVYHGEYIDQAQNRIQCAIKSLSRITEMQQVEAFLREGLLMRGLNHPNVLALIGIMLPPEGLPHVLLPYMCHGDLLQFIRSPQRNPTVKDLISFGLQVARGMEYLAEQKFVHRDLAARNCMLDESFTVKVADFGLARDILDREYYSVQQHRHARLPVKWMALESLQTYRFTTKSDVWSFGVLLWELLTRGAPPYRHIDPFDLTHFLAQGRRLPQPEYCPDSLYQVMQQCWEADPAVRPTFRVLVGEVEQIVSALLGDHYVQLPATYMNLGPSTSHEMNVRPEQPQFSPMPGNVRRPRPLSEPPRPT
In short: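 Recombinant RON was preincubated with compound for 15 min at RT in 50 mM HEPES pH 7.5, 10 mM MgCl2, 1 mM EGTA, 2 mM DTT, 0.01% Tween-20. Enzyme (0.4 nM), ATP (60 μM) and tyrosine peptide (400 nM) were prepared at 2×, 4× and 4× final. After 60 min at RT, EDTA/Eu-anti-phosphotyrosine stop; IC50 from 665 nm TR-FRET emission.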

[4] = test system: cancer cell line SW620, in which mutated RON (Δ155) is expressed; test: Cell-killing efficacy in RON-mutated cancer cell line SW620 (trypan blue); type: cell-based; conditions: Homo sapiens, SW-620, 48 hours, trypan blue, n=2, read-out: Cell death (%) Cancer cell line SW620
Method: as §1, §2

| IC50 [1] [nM] | IC50 (RON tyrosine kinase) [nM] | SMILES | cytotoxicity at 1 µM [2] [%] | cytotoxicity at 5 µM [2] [%] | cytotoxicity at 1 µM [3] [%] | cytotoxicity at 5 µM [3] [%] | cytotoxicity at 1 µM [4] [%] | cytotoxicity at 5 µM [4] [%] |
| --- | --- | --- | --- | --- | --- | --- | --- | --- |
| 4 | – | COc1cc2c(Oc3ccc(NC(=O)c4c5c(cn(-c6ccc(F)cc6)c4=O)CCO5)cc3F)ccnc2cc1OCCCN1CCC(F)(F)CC1 [Example 105, N-(4-((7-(3-(4,4-Difluoropiperidin-1-yl)propoxy)-6-methoxyquinolin-4-yl)oxy)-3-fluorophenyl)-5-(4-fluorophenyl)-6-oxo-2,3,5,6-tetrahydrofuro[3,2-c]pyridine-7-carboxamide] | – | – | 33.8 | 45.2 | 60.4 | 84.1 |
| 1 | – | COc1cc2c(Oc3ccc(NC(=O)c4c5c(cn(-c6ccc(F)cc6)c4=O)CCO5)cc3F)ccnc2cc1OCCN1CCS(=O)(=O)CC1 [Example 142, N-(4-((7-(2-(1,1-Dioxidothiomorpholino)ethoxy)-6-methoxyquinolin-4-yl)oxy)-3-fluorophenyl)-5-(4-fluorophenyl)-6-oxo-2,3,5,6-tetrahydrofuro[3,2-c]pyridine-7-carboxamide] | – | – | 34 | 40 | 74 | 67.6 |
| 3 | 0.45 | CNC(=O)c1cc2nccc(Oc3ccc(NC(=O)c4c5c(cn(-c6ccc(F)cc6)c4=O)CCO5)cc3F)c2cc1OC [Example 165, N-(3-Fluoro-4-((6-methoxy-7-(methylcarbamoyl)quinolin-4-yl)oxy)phenyl)-5-(4-fluorophenyl)-6-oxo-2,3,5,6-tetrahydrofuro[3,2-c]pyridine-7-carboxamide] | – | – | 7.3 | 32.9 | – | – |
| 16 | 1.9 | CNC(=O)c1cc2nccc(Oc3ccc(NC(=O)c4c5c(cn(-c6ccc(F)cc6)c4=O)CCO5)cc3F)c2cc1OCCN1CCOCC1 [Example 166, N-(3-Fluoro-4-((7-(methylcarbamoyl)-6-(2-morpholinoethoxy)quinolin-4-yl)oxy)phenyl)-5-(4-fluorophenyl)-6-oxo-2,3,5,6-tetrahydrofuro[3,2-c]pyridine-7-carboxamide] | – | – | 11.4 | 14.9 | – | – |
| 15 | 7.44 | O=C(Nc1ccc(Oc2ccnc3cc(OCCCN4CCOCC4)c(Cl)cc23)c(F)c1)c1c2c(cn(-c3ccc(F)cc3)c1=O)CCO2 [Example 172, N-(4-((6-Chloro-7-(3-morpholinopropoxy)quinolin-4-yl)oxy)-3-fluorophenyl)-5-(4-fluorophenyl)-6-oxo-2,3,5,6-tetrahydrofuro[3,2-c]pyridine-7-carboxamide] | – | – | 3.19 | 11.6 | – | – |
| 2 | 0.1 | COc1cc2nccc(Oc3ccc(NC(=O)c4c5c(cn(-c6ccc(F)cc6)c4=O)CCO5)cc3F)c2cc1OCCCN1CCOCC1 [Example 176, N-(3-Fluoro-4-((7-methoxy-6-(3-morpholinopropoxy)quinolin-4-yl)oxy)phenyl)-5-(4-fluorophenyl)-6-oxo-2,3,5,6-tetrahydrofuro[3,2-c]pyridine-7-carboxamide] | – | – | 4.1 | 20.2 | – | – |
| 3 | 6.83 | COc1cc2nccc(Oc3ccc(NC(=O)c4c5c(cn(-c6ccc(F)cc6)c4=O)CCO5)cc3F)c2cc1NC(=O)CCN1CCOCC1 [Example 180, N-(3-Fluoro-4-((7-methoxy-6-(3-morpholinopropanamido)quinolin-4-yl)oxy)phenyl)-5-(4-fluorophenyl)-6-oxo-2,3,5,6-tetrahydrofuro[3,2-c]pyridine-7-carboxamide] | – | – | 18.1 | 20.6 | – | – |
| 8 | 3.35 | COc1cc2c(Oc3ccc(NC(=O)c4c5c(cn(-c6ccc(F)cc6)c4=O)CCO5)cc3F)ccnc2cc1NC(=O)CN1CCOCC1 [Example 182, N-(3-Fluoro-4-((6-methoxy-7-(2-morpholinoacetamido)quinolin-4-yl)oxy)phenyl)-5-(4-fluorophenyl)-6-oxo-2,3,5,6-tetrahydrofuro[3,2-c]pyridine-7-carboxamide] | 7.6 | 10.2 | 25.1 | 44.4 | – | – |
| 3 | 2.5 | COc1cc2c(Oc3ccc(NC(=O)c4c5c(cn(-c6ccc(F)cc6)c4=O)CCO5)cc3F)ccnc2cc1NC(=O)CCN1CCOCC1 [Example 183, N-(3-Fluoro-4-((6-methoxy-7-(3-morpholinopropanamido)quinolin-4-yl)oxy)phenyl)-5-(4-fluorophenyl)-6-oxo-2,3,5,6-tetrahydrofuro[3,2-c]pyridine-7-carboxamide] | 7.8 | 87.5 | 27.3 | 40.3 | – | – |

Continued, compound first:

| SMILES | IC50 [1] [nM] | IC50 (RON tyrosine kinase) [nM] | cytotoxicity at 1 µM [2] [%] | cytotoxicity at 5 µM [2] [%] | cytotoxicity at 1 µM [3] [%] | cytotoxicity at 5 µM [3] [%] | cytotoxicity at 1 µM [4] [%] | cytotoxicity at 5 µM [4] [%] |
| --- | --- | --- | --- | --- | --- | --- | --- | --- |
| COCCNCc1ccc(-c2cc3nccc(Oc4ccc(NC(=O)c5c6c(cn(-c7ccc(F)cc7)c5=O)CCO6)cc4F)c3s2)nc1 [Example 1, N-(3-Fluoro-4-((2-(5-(((2-methoxyethyl)amino)methyl)pyridin-2-yl)thieno[3,2-b]pyridin-7-yl)oxy)phenyl)-5-(4-fluorophenyl)-6-oxo-2,3,5,6-tetrahydrofuro[3,2-c]pyridine-7-carboxamide hydrochloride] | 2 | 0.82 | 9.35 | 38.2 | 10.3 | 68.6 | – | – |
| COCCNCc1ccc(-c2cc3nccc(Oc4ccc(NC(=O)c5c6c(cn(-c7ccccc7)c5=O)CCO6)cc4F)c3s2)nc1 [Example 2, N-(3-Fluoro-4-((2-(5-(((2-methoxyethyl)amino)methyl)pyridin-2-yl)thieno[3,2-b]pyridin-7-yl)oxy)phenyl)-6-oxo-5-phenyl-2,3,5,6-tetrahydrofuro[3,2-c]pyridine-7-carboxamide hydrochloride] | 67 | 1.25 | 15.4 | 80.5 | 38.4 | 93.4 | – | – |
| CN(C)C1CN(Cc2ccc(-c3cc4nccc(Oc5ccc(NC(=O)c6c7c(cn(-c8ccc(F)cc8)c6=O)CCO7)cc5F)c4s3)nc2)C1 [Example 20, N-(4-((2-(5-((3-(Dimethylamino)azetidin-1-yl)methyl)pyridin-2-yl)thieno[3,2-b]pyridine-7-yl)oxy)-3-fluorophenyl)-5-(4-fluorophenyl)-6-oxo-2,3,5,6-tetrahydrofuro[3,2-c]pyridine-7-carboxamide] | 1 | – | – | – | 8.12 | 35.5 | 17.4 | 91.2 |
| COC1CCN(Cc2ccc(-c3cc4nccc(Oc5ccc(NC(=O)c6c7c(cn(-c8ccc(F)cc8)c6=O)CCO7)cc5F)c4s3)nc2)CC1 [Example 31, N-(3-Fluoro-4-((2-(5-((4-methoxypiperidin-1-yl)methyl)pyridin-2-yl)thieno[3,2-b]pyridin-7-yl)oxy)phenyl)-5-(4-fluorophenyl)-6-oxo-2,3,5,6-tetrahydrofuro[3,2-c]pyridine-7-carboxamide] | 2 | – | – | – | 40.9 | 52 | 15.4 | 47 |
| Cn1ncc2cc(Oc3ccc(NC(=O)c4c5c(cn(-c6ccc(F)cc6)c4=O)CCO5)cc3F)c(-c3cn[nH]c3)cc21 [Example 64] | – | 14.2 | 16 | 18.8 | 13.1 | 97.1 | – | – |
| COc1cc2c(Oc3ccc(NC(=O)c4c5c(cn(-c6ccc(F)cc6)c4=O)CCO5)cc3F)ccnc2cc1OCCCN1CC(F)(F)C1 [Example 87, N-(4-((7-(3-(3,3-Difluoroazetidin-1-yl)propoxy)-6-methoxyquinolin-4-yl)oxy)-3-fluorophenyl)-5-(4-fluorophenyl)-6-oxo-2,3,5,6-tetrahydrofuro[3,2-c]pyridine-7-carboxamide] | 3 | – | – | – | 40.7 | 60.1 | 77.1 | 70.5 |
